Test results reported in patent US20240316079A1, “USE OF AKR1C3-ACTIVATED COMPOUND” (OBI PHARMA, INC., priority 2021, published 2024).

Assays:
SK-HEP-1 = assay: In vitro proliferation assay, liver cancer cell line SK-HEP-1; assay type: cell-based; conditions: Homo sapiens, SK-HEP1, 96 hours of drug exposure, AKR1C3 protein Low, read-out: 3424 IC50
Description: (§1) IC50 was calculated as described above.

recombinant human AKR1C3 [1] = target: T1, recombinant human AKR1C3 (Homo sapiens, UniProt P42330); assay: Kinetic analysis of AKR1C3 towards various substrates (NADPH absorbance 340 nm); assay type: biochemical; conditions: substrate of AKR1C3, 25° C., triplicate
T1 construct: purchased Abcam (Cambridge, MA)
T1 sequence (P42330 1-323): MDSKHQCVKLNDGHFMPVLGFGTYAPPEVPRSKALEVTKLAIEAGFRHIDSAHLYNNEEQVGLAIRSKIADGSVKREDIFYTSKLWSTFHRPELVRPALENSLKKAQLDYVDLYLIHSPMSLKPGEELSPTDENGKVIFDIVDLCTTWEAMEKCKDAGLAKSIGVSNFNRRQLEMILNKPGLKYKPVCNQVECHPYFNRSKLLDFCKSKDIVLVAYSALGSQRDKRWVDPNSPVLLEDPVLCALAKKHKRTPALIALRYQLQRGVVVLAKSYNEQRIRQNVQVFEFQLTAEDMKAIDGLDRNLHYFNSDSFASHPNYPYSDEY
Description: The reaction was incubated at 25° C. and terminated at various time points by adding acetonitrile and methanol (at a ratio of 9 to 1) and subjected for LC-MS/MS analysis. For enzyme kinetic analysis, the activity was determined with a SpectraMax M2^e spectrophotometer (Molecular Devices, LLC, San Jose, CA) by measuring the decrease in absorbance of the NADPH at 340 nm (E=6270 M^−1 cm^−1). After the initiation of the reaction by addition of substrates, the reactions were monitored at 30 s intervals at 25° C. The non-substrate reaction rate was also monitored as background and its slope was used to determine the initial velocity of the reaction. The kinetic data reported were the average of triplicate measurements.

NCI-H522 = assay: In vitro proliferation assay, NSCLC cell line NCI-H522; assay type: cell-based; conditions: Homo sapiens, 72 hours of drug exposure, read-out: 3424 IC50
Description: as §1

SNU-387 = assay: In vitro proliferation assay, liver cancer cell line SNU-387; assay type: cell-based; conditions: Homo sapiens, 96 hours of drug exposure, AKR1C3 protein Medium, read-out: 3424 IC50
Description: as §1

SNU-449 = assay: In vitro proliferation assay, liver cancer cell line SNU-449; assay type: cell-based; conditions: Homo sapiens, 96 hours of drug exposure, AKR1C3 protein high, read-out: 3424 IC50
Description: as §1

HuCCT1 = assay: In vitro proliferation assay, liver cancer cell line HuCCT1; assay type: cell-based; conditions: Homo sapiens, HuCCT-1, 96 hours of drug exposure, AKR1C3 protein Low, read-out: 3424 IC50
Description: as §1

NCI-H1944 = assay: In vitro proliferation assay, NSCLC cell line NCI-H1944; assay type: cell-based; conditions: Homo sapiens, 72 hours of drug exposure, read-out: 3424 IC50
Description: as §1

PLC/PRF/5 = assay: In vitro proliferation assay, liver cancer cell line PLC/PRF/5; assay type: cell-based; conditions: Homo sapiens, 96 hours of drug exposure, AKR1C3 protein Medium, read-out: 3424 IC50
Description: as §1

HLE = assay: In vitro proliferation assay, liver cancer cell line HLE; assay type: cell-based; conditions: Homo sapiens, 96 hours of drug exposure, AKR1C3 protein Medium, read-out: 3424 IC50
Description: as §1

SNU-182 = assay: In vitro proliferation assay, liver cancer cell line SNU-182; assay type: cell-based; conditions: Homo sapiens, 96 hours of drug exposure, AKR1C3 protein Low, read-out: 3424 IC50
Description: as §1

NCIH2106 = assay: In vitro proliferation assay, NSCLC cell line NCIH2106; assay type: cell-based; conditions: Homo sapiens, 72 hours of drug exposure, read-out: 3424 IC50
Description: as §1

recombinant human AKR1C1 = target: T2, recombinant human AKR1C1 (Homo sapiens, UniProt Q04828); assay: Incubation of 3424 with AKR1C1 (2660 production, LC-MS/MS); assay type: biochemical
T2 construct: purchased Sigma
T2 sequence (Q04828 whole entry): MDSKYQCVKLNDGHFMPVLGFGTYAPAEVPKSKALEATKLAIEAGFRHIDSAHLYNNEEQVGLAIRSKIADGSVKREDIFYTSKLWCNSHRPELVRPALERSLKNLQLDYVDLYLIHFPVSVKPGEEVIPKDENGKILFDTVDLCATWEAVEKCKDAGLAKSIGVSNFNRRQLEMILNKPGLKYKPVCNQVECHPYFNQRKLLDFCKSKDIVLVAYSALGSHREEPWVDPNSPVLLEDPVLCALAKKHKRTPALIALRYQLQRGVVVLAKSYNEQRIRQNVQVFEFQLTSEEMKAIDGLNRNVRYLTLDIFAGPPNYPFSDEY

CAL12T = assay: In vitro proliferation assay, NSCLC cell line CAL12T; assay type: cell-based; conditions: Homo sapiens, CAL-12T, 72 hours of drug exposure, read-out: 3424 IC50
Description: as §1

recombinant human AKR1C3 [2] = target: T1, recombinant human AKR1C3; assay: AKR1C3-dependent activation of 3424 (2660 production, LC-MS/MS); assay type: biochemical; conditions: incubation with AKR1C3, n = 3, mean ± SD
Description: The reaction was incubated at 25° C. and terminated at various time points by adding acetonitrile and methanol (at a ratio of 9 to 1) and subjected for LC-MS/MS analysis. For enzyme kinetic analysis, the activity was determined with a SpectraMax M2^e spectrophotometer (Molecular Devices, LLC, San Jose, CA) by measuring the decrease in absorbance of the NADPH at 340 nm (E=6270 M^−1 cm^−1). After the initiation of the reaction by addition of substrates, the reactions were monitored at 30 s intervals at 25° C. The non-substrate reaction rate was also monitored as background and its slope was used to determine the initial velocity of the reaction. The kinetic data reported were the average of triplicate measurements. For AKR1C3-mediated 3424 metabolism, LC/MS/MS was performed using a Sciex API-4000 Qtrap (ABSciex, LLC, Framingham, MA) mass spectrometer coupled to an Agilent 1200 HPLC system (Agilent Technologies, Santa Clara, CA). […] The column oven temperature was 40° C. and the sample injection volume was 2 μL. The mass spectra were obtained in positive MRM mode. In positive ion mode, the ion spray voltage was set at 4500 V, declustering potential at 80 V, collision energy at 20 V, source temperature at 350° C., curtain gas at 10 psi and the source gas 1 and 2 both at 60 psi. […] For 2660 analysis, normal phase liquid chromatographic separation was performed with Waters Atlantis HILIC Silica column (2.1 mm×100 mm, 3 μm, Waters Corp., Milford, MA) in a total run time of 9 min using a flow rate of 0.3 mL/min. The mobile phase A consisted of 1 mM ammonium formate in water and mobile phase B using ACN. […] The column oven temperature was 40° C. and the sample injection volume was 2 μL. The mass spectra were obtained in negative MRM mode. In negative ion mode, the ion spray voltage was set at −4500 V, declustering potential at −60 V, collision energy at −30 V, source temperature at 350° C., curtain gas at 10 psi and the source gas 1 and 2 both at 60 psi. […] The peak area ratio for each MRM transition (peak area of analyte/peak area of analyte-IS) of calibration standards and samples were used for quantitative analysis using Analyst 1.6 software (ABSciex, Framingham, MA).

NCIH1755 = assay: In vitro proliferation assay, NSCLC cell line NCIH1755; assay type: cell-based; conditions: Homo sapiens, NCI-H1755, 72 hours of drug exposure, read-out: 3424 IC50
Description: as §1

## C[C@H](OP(=O)(N1CC1)N1CC1)c1ccc([N+](=O)[O-])c(Oc2cccc(C(=O)N(C)C)c2)c1 [Compound 3424, (S)-1-(3-(3-N,N-dimethylaminocarbonyl)phenoxyl-4-mtrophenyl)-1-ethyl-N,N′-bis(ethylene)phosphoramidate]
SK-HEP-1
  IC50: > 1000 nM
Recombinant human AKR1C3 [1]
  Kcat: 0.64 ± 0.01 min⁻¹
Recombinant human AKR1C3 [1]; read-out: Km
  Km: 12.6 ± 0.28 µM
NCI-H522
  IC50: > 1000 nM
SNU-387
  IC50: 103 nM
SNU-449
  IC50: 45 nM
HuCCT1
  IC50: 696 nM
NCI-H1944
  IC50: 2.3 nM
PLC/PRF/5
  IC50: 167 nM
HLE
  IC50: 113 nM
SNU-182
  IC50: > 1000 nM
NCIH2106
  IC50: > 1000 nM
Recombinant human AKR1C1
  metabolism by AKR1C1: not metabolized
Recombinant human AKR1C1; 3424 concentration 50 μM, incubation with AKR1C1, BQL: below quantification limit (0.25 ng/mL)
  2660 Concentration: BQL
CAL12T
  IC50: 29.1 nM
Recombinant human AKR1C3 [2]; 3424 concentration 10 μM
  2660 Concentration: 10.71 ± 0.53 µM
Recombinant human AKR1C3 [2]; 3424 concentration 20 μM
  2660 Concentration: 14.77 ± 1.44 µM
Recombinant human AKR1C3 [2]; 3424 concentration 30 μM
  2660 Concentration: 33.96 ± 1.90 µM
Recombinant human AKR1C3 [2]; 3424 concentration 40 μM
  2660 Concentration: 34.30 ± 6.63 µM
Recombinant human AKR1C3 [2]; 3424 concentration 50 μM
  2660 Concentration: 34.59 ± 7.44 µM
NCIH1755
  IC50: 8.2 nM
